Assays:
Assay type in all cases: cell-based, mouse
[1] = tested on: α7 integrin (LacZ reporter in α7+/LacZ myotubes); assay: Myotube α7 integrin FDG assay (Burkin assay in myotubes, 96-well); details: myotubes
[2] = tested on: α7 integrin (LacZ reporter in α7βgal+/− myoblasts); assay: Myoblast α7+/LacZ integrin FDG assay (Burkin assay in myoblasts, 96-well); details: α7+/LacZ myoblasts, 96-well
[3] = tested on: β-galactosidase in CMV-LacZ C2C12 myotubes; assay: CMV-LacZ secondary screen in C2C12 myotubes (β-Gal stabilizing assay); details: for CMV-LACZ in Myotubes (β-galactosidase activity relative to DMSO): CMV-LacZ C2C12 myotubes, 96-well format; for CMV-LACZ in Myotubes, signal relative to DMSO: C2C12 CMV-LacZ myotubes, fold relative to DMSO
Method in brief: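 β-Gal level was the read-out, measured in a clonal C2C12 line expressing LacZ from a CMV promoter. Dose-response curves used six concentrations, 0.5 μM up to 40 μM, with duplicate points.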

Structure (SMILES): CCc1ccc(N(C(=O)c2snc(C(N)=O)c2N)C(C(=O)NC2CCCC2)c2ccco2)cc1 (stereo not shown) [MLS001216714-01]
- fold induction at 0.5 µM ([1]; Mus musculus, Myotube, 0.5 uM, read-out: Burkin Assay in Myotubes (signal relative to DMSO)): 1.03
- fold induction at 1 µM ([1]; Mus musculus, Myotube, 1 uM, read-out: Burkin Assay in Myotubes (signal relative to DMSO)): 1.17
- fold induction at 5 µM ([1]; Mus musculus, Myotube, 5 uM, read-out: Burkin Assay in Myotubes (signal relative to DMSO)): 1.1
- fold induction at 10 µM ([1]; Mus musculus, Myotube, 10 uM, read-out: Burkin Assay in Myotubes (signal relative to DMSO)): 1.32
- fold induction at 20 µM ([1]; Mus musculus, Myotube, 20 uM, read-out: Burkin Assay in Myotubes (signal relative to DMSO)): 0.706
- fold induction at 40 µM ([1]; Mus musculus, Myotube, 40 uM, read-out: Burkin Assay in Myotubes (signal relative to DMSO)): 0.677
- fold induction at 0.5 µM ([2]; Mus musculus, Myoblast, 48 h, 0.5 uM, read-out: Burkin Assay in Myoblasts, value relative to DMSO): 1.02
- fold induction at 1 µM ([2]; Mus musculus, Myoblast, 48 h, 1 uM, read-out: Burkin Assay in Myoblasts, value relative to DMSO): 0.971
- fold induction at 5 µM ([2]; Mus musculus, Myoblast, 48 h, 5 uM, read-out: Burkin Assay in Myoblasts, value relative to DMSO): 1.04
- fold induction at 10 µM ([2]; Mus musculus, Myoblast, 48 h, 10 uM, read-out: Burkin Assay in Myoblasts, value relative to DMSO): 1.14
- fold induction at 20 µM ([2]; Mus musculus, Myoblast, 48 h, 20 uM, read-out: Burkin Assay in Myoblasts, value relative to DMSO): 1.09
- fold induction at 40 µM ([2]; Mus musculus, Myoblast, 48 h, 40 uM, read-out: Burkin Assay in Myoblasts, value relative to DMSO): 0.274
- CMV-LACZ in Myotubes (β-galactosidase activity relative to DMSO) ([3]; 5 uM): 0.9162
- CMV-LACZ in Myotubes (β-galactosidase activity relative to DMSO) ([3]; 10 uM): 0.98
- CMV-LACZ in Myotubes (β-galactosidase activity relative to DMSO) ([3]; 20 uM): 1.417
- CMV-LACZ in Myotubes (β-galactosidase activity relative to DMSO) ([3]; 40 uM): 3.633

Structure (SMILES): Cc1ccccc1OCC(=O)Nc1nnc(-c2ccco2)s1 [MLS000333610-01]
- Burkin Assay in Myotubes, α7 integrin LacZ reporter signal relative to DMSO ([1]; 0.5 uM): 0.986
- Burkin Assay in Myotubes, α7 integrin LacZ reporter signal relative to DMSO ([1]; 1 uM): 1.039
- Burkin Assay in Myotubes, α7 integrin LacZ reporter signal relative to DMSO ([1]; 5 uM): 1.003
- Burkin Assay in Myotubes, α7 integrin LacZ reporter signal relative to DMSO ([1]; 10 uM): 0.9932
- Burkin Assay in Myotubes, α7 integrin LacZ reporter signal relative to DMSO ([1]; 20 uM): 0.8742
- Burkin Assay in Myotubes, α7 integrin LacZ reporter signal relative to DMSO ([1]; 40 uM): 0.9096
- Burkin Assay in Myoblasts, signal relative to DMSO ([2]; 0.5 uM): 0.8664
- Burkin Assay in Myoblasts, signal relative to DMSO ([2]; 1 uM): 0.9253
- Burkin Assay in Myoblasts, signal relative to DMSO ([2]; 5 uM): 1.048
- Burkin Assay in Myoblasts, signal relative to DMSO ([2]; 10 uM): 0.9188
- Burkin Assay in Myoblasts, signal relative to DMSO ([2]; 20 uM): 0.7975
- Burkin Assay in Myoblasts, signal relative to DMSO ([2]; 40 uM): 0.7794
- CMV-LACZ in Myotubes, signal relative to DMSO ([3]; 5 uM): 0.832
- CMV-LACZ in Myotubes, signal relative to DMSO ([3]; 10 uM): 0.7867
- CMV-LACZ in Myotubes, signal relative to DMSO ([3]; 20 uM): 0.9429
- CMV-LACZ in Myotubes, signal relative to DMSO ([3]; 40 uM): 0.9948

Structure (SMILES): CCS(=O)(=O)N1CCCC(C(=O)c2ccc(OC)cc2C)C1 (stereo not shown) [MLS000693747-01]
- Burkin Assay in Myotubes (signal relative to DMSO) ([1]; 0.5 uM): 1.061
- Burkin Assay in Myotubes (signal relative to DMSO) ([1]; 1 uM): 0.7194
- Burkin Assay in Myotubes (signal relative to DMSO) ([1]; 5 uM): 1.433
- Burkin Assay in Myotubes (signal relative to DMSO) ([1]; 10 uM): 0.9111
- Burkin Assay in Myotubes (signal relative to DMSO) ([1]; 20 uM): 1.122
- Burkin Assay in Myotubes (signal relative to DMSO) ([1]; 40 uM): 1.0456
- Burkin Assay in Myoblasts, value relative to DMSO ([2]; 0.5 uM): 1.114
- Burkin Assay in Myoblasts, value relative to DMSO ([2]; 1 uM): 1.036
- Burkin Assay in Myoblasts, value relative to DMSO ([2]; 5 uM): 1.0596
- Burkin Assay in Myoblasts, value relative to DMSO ([2]; 10 uM): 1.088
- Burkin Assay in Myoblasts, value relative to DMSO ([2]; 20 uM): 0.8796
- Burkin Assay in Myoblasts, value relative to DMSO ([2]; 40 uM): 0.9175
- CMV-LACZ in Myotubes (β-galactosidase activity relative to DMSO) ([3]; 5 uM): 0.9962
- CMV-LACZ in Myotubes (β-galactosidase activity relative to DMSO) ([3]; 10 uM): 0.9523
- CMV-LACZ in Myotubes (β-galactosidase activity relative to DMSO) ([3]; 20 uM): 0.9693
- CMV-LACZ in Myotubes (β-galactosidase activity relative to DMSO) ([3]; 40 uM): 1.043

Structure (SMILES): Cc1cc(NC(=O)CCC(=O)N(Cc2cccnc2)C(C(=O)NC(C)(C)C)c2ccccc2Cl)no1 (stereo not shown) [MLS001220803-01]
- Burkin Assay in Myotubes (signal relative to DMSO) ([1]; 0.5 uM): 0.9345
- Burkin Assay in Myotubes (signal relative to DMSO) ([1]; 1 uM): 0.9703
- Burkin Assay in Myotubes (signal relative to DMSO) ([1]; 5 uM): 1.18
- Burkin Assay in Myotubes (signal relative to DMSO) ([1]; 10 uM): 1.075
- Burkin Assay in Myotubes (signal relative to DMSO) ([1]; 20 uM): 1.0147
- Burkin Assay in Myotubes (signal relative to DMSO) ([1]; 40 uM): 0.9622
- Burkin Assay in Myoblasts, value relative to DMSO ([2]; 0.5 uM): 0.9688
- Burkin Assay in Myoblasts, value relative to DMSO ([2]; 1 uM): 1.0343
- Burkin Assay in Myoblasts, value relative to DMSO ([2]; 5 uM): 0.8878
- Burkin Assay in Myoblasts, value relative to DMSO ([2]; 10 uM): 0.9511
- Burkin Assay in Myoblasts, value relative to DMSO ([2]; 20 uM): 0.9503
- Burkin Assay in Myoblasts, value relative to DMSO ([2]; 40 uM): 0.9906
- CMV-LACZ in Myotubes (β-galactosidase activity relative to DMSO) ([3]; 5 uM): 1.115
- CMV-LACZ in Myotubes (β-galactosidase activity relative to DMSO) ([3]; 10 uM): 1.064
- CMV-LACZ in Myotubes (β-galactosidase activity relative to DMSO) ([3]; 20 uM): 1.091
- CMV-LACZ in Myotubes (β-galactosidase activity relative to DMSO) ([3]; 40 uM): 1.05

Structure (SMILES): CC(=O)Nc1c(-c2ccc(Cl)cc2)c(=O)c2ccccc2n1C [MLS001214461-01]
- Burkin Assay in Myotubes (signal relative to DMSO) ([1]; 0.5 uM): 1.207
- Burkin Assay in Myotubes (signal relative to DMSO) ([1]; 1 uM): 0.9586
- Burkin Assay in Myotubes (signal relative to DMSO) ([1]; 5 uM): 1.072
- Burkin Assay in Myotubes (signal relative to DMSO) ([1]; 10 uM): 0.9457
- Burkin Assay in Myotubes (signal relative to DMSO) ([1]; 20 uM): 1.087
- Burkin Assay in Myotubes (signal relative to DMSO) ([1]; 40 uM): 0.8844
- Burkin Assay in Myoblasts, value relative to DMSO ([2]; 0.5 uM): 1.064
- Burkin Assay in Myoblasts, value relative to DMSO ([2]; 1 uM): 0.9241
- Burkin Assay in Myoblasts, value relative to DMSO ([2]; 5 uM): 0.8964
- Burkin Assay in Myoblasts, value relative to DMSO ([2]; 10 uM): 0.8123
- Burkin Assay in Myoblasts, value relative to DMSO ([2]; 20 uM): 0.8472
- Burkin Assay in Myoblasts, value relative to DMSO ([2]; 40 uM): 0.767
- CMV-LACZ in Myotubes, signal relative to DMSO ([3]; 5 uM): 0.8137
- CMV-LACZ in Myotubes, signal relative to DMSO ([3]; 10 uM): 0.9363
- CMV-LACZ in Myotubes, signal relative to DMSO ([3]; 20 uM): 0.9167
- CMV-LACZ in Myotubes, signal relative to DMSO ([3]; 40 uM): 0.9566

Structure (SMILES): Cc1cc2ccccc2n2c(SCC(=O)NCc3cccs3)nnc12 [MLS000526364-01]
- Burkin Assay in Myotubes, α7 integrin LacZ reporter signal relative to DMSO ([1]; 0.5 uM): 0.9648
- Burkin Assay in Myotubes, α7 integrin LacZ reporter signal relative to DMSO ([1]; 1 uM): 0.8953
- Burkin Assay in Myotubes, α7 integrin LacZ reporter signal relative to DMSO ([1]; 5 uM): 1.033
- Burkin Assay in Myotubes, α7 integrin LacZ reporter signal relative to DMSO ([1]; 10 uM): 0.8908
- Burkin Assay in Myotubes, α7 integrin LacZ reporter signal relative to DMSO ([1]; 20 uM): 1.358
- Burkin Assay in Myotubes, α7 integrin LacZ reporter signal relative to DMSO ([1]; 40 uM): 0.9162
- Burkin Assay in Myoblasts, signal relative to DMSO ([2]; 0.5 uM): 0.9747
- Burkin Assay in Myoblasts, signal relative to DMSO ([2]; 1 uM): 0.9502
- Burkin Assay in Myoblasts, signal relative to DMSO ([2]; 5 uM): 1.045
- Burkin Assay in Myoblasts, signal relative to DMSO ([2]; 10 uM): 1.085
- Burkin Assay in Myoblasts, signal relative to DMSO ([2]; 20 uM): 1.114
- Burkin Assay in Myoblasts, signal relative to DMSO ([2]; 40 uM): 1.029
- CMV-LACZ in Myotubes, signal relative to DMSO ([3]; 5 uM): 0.9507
- CMV-LACZ in Myotubes, signal relative to DMSO ([3]; 10 uM): 0.953
- CMV-LACZ in Myotubes, signal relative to DMSO ([3]; 20 uM): 1.1735
- CMV-LACZ in Myotubes, signal relative to DMSO ([3]; 40 uM): 1.1865

Structure (SMILES): N#Cc1ccccc1S(=O)(=O)N1CCN(C(=O)C2CCCCC2)CC1 [MLS002251986-01]
- Burkin Assay in Myotubes, α7 integrin LacZ reporter signal relative to DMSO ([1]; 0.5 uM): 1.121
- Burkin Assay in Myotubes, α7 integrin LacZ reporter signal relative to DMSO ([1]; 1 uM): 0.9515
- Burkin Assay in Myotubes, α7 integrin LacZ reporter signal relative to DMSO ([1]; 5 uM): 1.073
- Burkin Assay in Myotubes, α7 integrin LacZ reporter signal relative to DMSO ([1]; 10 uM): 1.088
- Burkin Assay in Myotubes, α7 integrin LacZ reporter signal relative to DMSO ([1]; 20 uM): 0.9882
- Burkin Assay in Myotubes, α7 integrin LacZ reporter signal relative to DMSO ([1]; 40 uM): 0.9112
- Burkin Assay in Myoblasts, signal relative to DMSO ([2]; 0.5 uM): 1.046
- Burkin Assay in Myoblasts, signal relative to DMSO ([2]; 1 uM): 0.9231
- Burkin Assay in Myoblasts, signal relative to DMSO ([2]; 5 uM): 0.9512
- Burkin Assay in Myoblasts, signal relative to DMSO ([2]; 10 uM): 0.8667
- Burkin Assay in Myoblasts, signal relative to DMSO ([2]; 20 uM): 0.9793
- Burkin Assay in Myoblasts, signal relative to DMSO ([2]; 40 uM): 0.9184
- CMV-LACZ in Myotubes, signal relative to DMSO ([3]; 5 uM): 0.9831
- CMV-LACZ in Myotubes, signal relative to DMSO ([3]; 10 uM): 0.9609
- CMV-LACZ in Myotubes, signal relative to DMSO ([3]; 20 uM): 0.8238
- CMV-LACZ in Myotubes, signal relative to DMSO ([3]; 40 uM): 0.9776
